Like-named read-outs stand apart in the source and are kept apart here.
What was measured:
L929 cell line = test: Biocompatibility by WST-1 assay (ISO 10993); type: cell-based
Method: The extracted supernatants were collected for subsequent experiments. Zinc diethyldithiocarbamate was used as a positive control and aluminum oxide was used as a negative control. After adding the WST-1 solution to the wells, the plate was incubated for 2 h, and the absorbance of each well was measured at 450 nm using a spectrophotometric plate reader (ELISA reader, Tecan Sunrise, Switzerland). The percentage of viable cells was calculated using the following equation:
Cell viability (%) = ((OD experiment - OD background) ×100)/ ((OD control - OD background))…(2).

[1] = Drug content in brain tissues by LC/MS/MS; type: in vivo, SD rats; conditions: male, SD, 6 mg/kg; rat brain homogenate, intramuscular injection; read-out: Concentration in brain tissues 24 h after injection
Method: (§1) The study used 60 male SD rats (BioLASCO, Taiwan; average age, 8 weeks). The study was approved by the Institutional Animal Care and Use Committee (No. 20,190,497) of National Taiwan University. CLB.HCl (Sigma-Aldrich C5423; Lot# BCBQ2163V) powder was stored at 4 °C and diluted in sterile 0.9% saline to a concentration of 20 µM based on the free base before injection. AlCl3 (7446-70-0, Sigma-Aldrich) was dissolved in normal saline before injection, and 70 mg/kg body weight of AlCl3 was administered intraperitoneally (i.p.) three times weekly for 8 weeks as previously described. […] After 8 weeks, several animal behavioral tests, histological staining, pharmacokinetics, and biochemical analyses were performed.
LC-MS/MS was used to perform quantitative analysis using an LCMS8030 system (Shimadzu, Japan). We used the multiple reaction monitoring mode for mass spectrometric analysis, and the MS/MS parameters were optimized by flow injection analysis. Plasma samples were prepared using simple protein precipitation in methanol. The specificity of the method was tested by analyzing blank rat plasma, blank rat plasma spiked with clenbuterol-d9 (internal standard, IS), and plasma samples collected after CLB administration. […] The concentrations of the QC samples were calculated based on the calibration curve and compared with those of the control samples with the same concentration. […]

[2] = system: rats with AlCl3-induced AD; test: Morris water maze test in rats with AlCl3-induced AD; type: in vivo, SD rats; conditions: 6 mg/kg intramuscular weekly, 8 weeks
Method: as §1
This study used a circular pool partitioned into four quadrants, one of which contained an underwater platform. […] After four training sessions, the time taken by the rats to reach the escape platform was measured using EthoVision software (Noldus Information Technology, Wageningen, Netherlands). […] To evaluate spatial memory, the time taken by each rat to reach the platform from the starting position was recorded. On the contrary, working memory was assessed by determining the amount of time spent by the rat in the same quadrant (up to 120 s) but without a platform. The time spent in the quadrant without a platform was also recorded.

[3] = Plasma pharmacokinetics of CLB by LC-MS/MS after intramuscular administration; type: in vivo, SD rats
Method: as §1
LC-MS/MS was used to perform quantitative analysis using an LCMS8030 system (Shimadzu, Japan). We used the multiple reaction monitoring mode for mass spectrometric analysis, and the MS/MS parameters were optimized by flow injection analysis. Plasma samples were prepared using simple protein precipitation in methanol. The specificity of the method was tested by analyzing blank rat plasma, blank rat plasma spiked with clenbuterol-d9 (internal standard, IS), and plasma samples collected after CLB administration. A Thermo Hypersil Gold aQ C18 column (50 mm × 2.1 mm) with a particle size of 1.9 μm was used for separation. The mobile phase gradient consisted of (A) 2% methanol in pure water + 0.1% formic acid, and (B) methanol with 0.1% formic acid. The gradient elution was as follows: 30% B (0 min), 30% B (0.5 min), 98% B (2.5 min), 98% B (3.5 min), 30% B (4 min), and 30% B (5.5 min) at a flow rate of 300 µL/min, with a total run time of […]. A calibration curve was constructed using the plasma concentration of the quality control (QC) sample and the peak area ratio (y) of the QC sample to the IS. The linear calibration curves of CLB ranged from 0.5 to 200 ng/mL, with correlation coefficients over 0.99952. The injection volume of the final solution was 20 µL for the serum specimens. To evaluate the accuracy, precision, and extraction recovery of the assay, three sequential assays were performed with six replicates of QC samples (5, 50, and 500 ng/mL CLB) for each assay. QC samples were prepared from normal blank rat plasma at concentrations of 0.5, 2, 5, 20, 50, 200, and 500 ng/mL of CLB. The concentrations of the QC samples were calculated based on the calibration curve and compared with those of the control samples with the same concentration. For the brain sample homogenization procedures, a brain sample and an equivalent weight of 25% plasma solution were mixed in a 50 mL centrifuge tube and homogenized completely at 30,000 rpm on ice. The resulting homogenized solution was centrifuged and the supernatant was collected as a test sample. The test sample was filtered through a 0.2 μm GHP filter, and 200 µL of the sample mixture was transferred into a new 96-well 1 mL round collection plate and sealed. Finally, the samples were placed in an autosampler to be injected.

N2a cell line = test: N2a cell viability versus concentration (IC50); type: cell-based; conditions: Mus musculus; N2a cells; called predicted IC50; read-out: IC50 (concentration at which 50% cell survival was observed)
Aβ42 peptides = molecular target: T1, Aβ42 peptides (Homo sapiens, UniProt P05067); test: Thioflavin T fluorescence assay and TEM of Aβ aggregation; type: biochemical
T1 construct: Aβ42 peptides were obtained from Peptide Institute, Inc; purchased Peptide Institute, Inc. (ASIA BIOSCIENCE Co., Ltd., Taiwan)
T1 sequence (P05067 672-713 limits assumed): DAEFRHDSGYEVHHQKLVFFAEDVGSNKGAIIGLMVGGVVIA
Method: Aβ42 peptides were obtained from Peptide Institute, Inc. (ASIA BIOSCIENCE Co., Ltd., Taiwan) and dissolved in hexafluoro-2-propanol (HFIP; Oakwood Products, Estill, SC, USA) to a final concentration of 1 mM for monomerization. The resulting solution was stored at − 80 °C. The monomerized peptides were resuspended in anhydrous DMSO (catalog number D-2650, Sigma) and diluted to a concentration of 100 µM using Dulbecco’s modified Eagle’s medium (DMEM, Sigma) before use. Aβ fibrils were formed by shaking the solution at 37 °C for 3 days. The morphology of the fibrils, with or without CLB incubation for 3 days, was observed using transmission electron microscopy (TEM). Samples were incubated with 1% uranyl acetate for 1 min before TEM.
The progression of amyloid β aggregation was tracked using thioflavin T (ThT), a fluorescent dye originally used to stain amyloid fibrils in histological samples. […] ThT fluorescence was measured at 25 °C using a spectrophotometric plate reader (ELISA reader, Tecan Sunrise, Switzerland) with an excitation filter at 450 nm and an emission filter at 482 nm, the computation of intensity was performed through the utilization of SoftMax Pro 7.0 software (Molecular Devices, CA, USA). After ThT binds to β-sheet aggregate structures, such as amyloid fibrils, its fluorescence emission changes, allowing the monitoring of amyloid β aggregation.

[4] = system: rats with AlCl3-induced AD; test: Western blot of brain tissue for synapsin-1, synaptophysin, BACE1 and TNF-α; type: in vivo, SD rats; conditions: compared with the AD group
Method: as §1

BV-2 microglial cells = test: Western blot analysis of LPS-induced inflammation; type: cell-based
Method: LPS (L2880, Sigma) was dissolved in normal saline before injection. BV2 cells were seeded in 6-well plates at a density of 10^5 cells/well and cultured for 1 day to allow full adhesion. […] Subsequently, LPS (1 µg/mL) was added to induce inflammation for 24 h. The medium was then removed and the BV2 cells were washed three times with PBS. The cells were then lysed in 100 µL of ice-cold radioimmunoprecipitation assay buffer, and protein concentrations were quantified using the Bio-Rad protein assay. Equal amounts of proteins were electrophoresed on a 10% sodium dodecyl sulfate-polyacrylamide gel. The separated proteins were transferred onto nitrocellulose membranes and incubated with primary monoclonal mouse antibodies (BIOTOOLS Co., Ltd., Taipei, Taiwan) against IL-6 (1:1000), IL-1β (1:1000), TNF-α (1:1000), and β-actin (1:5000) overnight at 4 °C. Following incubation with the appropriate secondary antibody, the signals were analyzed using an imaging system (Bio-Rad).

[5] = male, SD, im, rat plasma, 6 mg/kg intramuscular

Compound | cell viability / cytotoxicity (L929 cell line; L929 cells, day 3, WST-1, extract medium) | concentration at 24 h [1] [ng/mL] | time to locate the escape platform (MWM) [2] | half-life ([3]; SD, rat, plasma, intramuscular, 6 mg/kg, rats) [h] | AUC(0-inf) [3, 5] [ng·h/mL] | Tmax [3, 5] [h] | AUC(0-t) ([3]; male, SD, im, rat plasma, 6 mg/kg intramuscular, 0.5-168 hr) [ng·h/mL] | Cmax ([3]; male, SD, rat, plasma, im, 6 mg/kg, rat plasma, 6 mg/kg intramuscular, read-out: Cmax) [ng/mL] | Cmax ([3]; rat plasma, 6 mg/kg intramuscular, 6 mg/kg) [ng/mL] | accumulation after multiple-dose administration ([3]; rats, repeated intramuscular dosing) | IC50 (N2a cell line) [µM] | effect on Aβ aggregates (ThT fluorescence) (Aβ42 peptides; 10 µM Aβ incubated with 20 µM CLB) | effect on Aβ fibrils (TEM) (Aβ42 peptides; Aβ and CLB co-incubated for 3 days) | expression of synapsin-1 and synaptophysin in hippocampus [4] | protein expression levels of IL-1β, IL-6, and TNF-α (BV-2 microglial cells; LPS-induced BV-2 cells, western blot) | secretion of IL-1β, IL-6, and TNF-α (BV-2 microglial cells; LPS-stimulated BV-2 cells, 20 µM, vs LPS-treated control cells) | cell viability / cytotoxicity (L929 cell line)
CC(C)(C)NCC(O)c1cc(Cl)c(N)c(Cl)c1 (centres unmarked) [CLB, Clenbuterol] | no notable disparities in cell viability | 5.24 ± 1.81 | did not exhibit a performance similar to that of the SHAP-CLB group | ~30 | 5200 ± 4000 | 4 | 4890 ± 3740 | 120 ± 12.8 | 120.19 | no apparent accumulation | 20 | extensive fragmentation | disassembled amyloid plaques | significant increase | prominently reduced | significant inhibitory effects | –
Hydroxyapatite [HAP] | – | – | – | – | – | – | – | – | – | – | – | – | – | – | – | – | no notable disparities in cell viability

Source: article PMC10557233, “Controlled release of Clenbuterol from a hydroxyapatite carrier for the treatment of Alzheimer’s Disease” (Biomaterials Research, 2023)
